Assay results: ChEMBL document CHEMBL1914458 (Eur J Med Chem, 2011)
pIC50: −log10 of the molar value.

What was measured:
[1] = Antioxidant activity assessed as trolox equivalent of AAPH-induced peroxyl radical scavenging activity at 0.5 to 10 uM after 10 mins by oxygen radical absorbance capacity-fluorescein assay; type: functional
Acetylcholinesterase = Acetylcholinesterase (Electrophorus electricus, UniProt O42275)
Description: Inhibition of electric eel AChE using acetylthiocholine chloride substrate as substrate preincubated for 15 mins by Ellman's method

Cholinesterase = Cholinesterase (Equus caballus, UniProt P81908)
Description: Inhibition of equine serum BuChE using butyrylthiocholine chloride as substrate preincubated for 15 mins by Ellman's method

[2] = Inhibition of self-mediated amyloid beta (1 to 42) aggregation at 20 uM after 48 hrs by thioflavin T fluorescence assay
[3] = Inhibition of self-mediated amyloid beta (1 to 42) aggregation at 10 uM after 48 hrs by thioflavin T fluorescence assay

Acetylcholinesterase, sequence (O42275 whole entry): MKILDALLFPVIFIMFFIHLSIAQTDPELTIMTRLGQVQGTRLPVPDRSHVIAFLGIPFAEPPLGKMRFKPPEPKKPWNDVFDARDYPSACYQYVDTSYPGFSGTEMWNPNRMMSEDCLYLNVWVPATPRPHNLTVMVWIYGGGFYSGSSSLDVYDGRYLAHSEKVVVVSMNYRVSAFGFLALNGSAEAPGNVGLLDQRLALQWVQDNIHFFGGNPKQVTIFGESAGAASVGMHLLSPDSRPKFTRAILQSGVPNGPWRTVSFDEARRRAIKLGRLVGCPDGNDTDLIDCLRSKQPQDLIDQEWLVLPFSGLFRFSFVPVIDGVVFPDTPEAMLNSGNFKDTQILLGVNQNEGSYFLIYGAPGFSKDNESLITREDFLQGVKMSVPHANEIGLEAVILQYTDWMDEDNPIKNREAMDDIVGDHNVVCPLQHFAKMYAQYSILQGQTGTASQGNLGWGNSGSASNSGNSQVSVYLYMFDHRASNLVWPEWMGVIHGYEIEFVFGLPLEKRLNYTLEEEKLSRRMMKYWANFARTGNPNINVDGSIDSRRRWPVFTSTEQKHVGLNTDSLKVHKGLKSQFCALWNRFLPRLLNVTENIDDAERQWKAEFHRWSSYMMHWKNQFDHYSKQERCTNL
Cholinesterase, sequence (P81908 whole entry): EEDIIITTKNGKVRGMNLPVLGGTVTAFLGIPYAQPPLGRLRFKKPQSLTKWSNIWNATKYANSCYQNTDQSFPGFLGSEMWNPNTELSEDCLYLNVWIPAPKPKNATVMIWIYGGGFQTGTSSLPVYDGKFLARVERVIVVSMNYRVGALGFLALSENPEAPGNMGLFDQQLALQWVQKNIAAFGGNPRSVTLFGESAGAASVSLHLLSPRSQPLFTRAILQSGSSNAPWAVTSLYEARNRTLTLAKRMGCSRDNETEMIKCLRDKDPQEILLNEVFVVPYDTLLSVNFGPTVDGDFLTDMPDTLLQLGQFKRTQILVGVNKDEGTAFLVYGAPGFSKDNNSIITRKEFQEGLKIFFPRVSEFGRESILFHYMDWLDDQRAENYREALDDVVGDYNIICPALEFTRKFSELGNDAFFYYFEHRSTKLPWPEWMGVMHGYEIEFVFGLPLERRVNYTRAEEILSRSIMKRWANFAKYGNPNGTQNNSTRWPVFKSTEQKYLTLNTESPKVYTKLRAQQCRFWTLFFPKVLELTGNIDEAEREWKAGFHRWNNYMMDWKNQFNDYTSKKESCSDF

| SMILES | Ratio [1] | pIC50 (Acetylcholinesterase) | pIC50 (Cholinesterase) | inhibition [2] | inhibition [3] |
| --- | --- | --- | --- | --- | --- |
| COc1ccc2cc3[n+](cc2c1NCCCCCCOc1ccccc1)CCc1cc2c(cc1-3)OCO2 | 2.8 | 5.85 | 5.89 | – | – |
| COc1ccc2cc3[n+](cc2c1NCCc1cccc(C)c1)CCc1cc2c(cc1-3)OCO2 | 4.73 | 7.04 | 6.17 | 93.6% | 79% |
| COc1cc(/C=C/C(=O)CC(=O)/C=C/c2ccc(O)c(OC)c2)ccc1O | – | – | – | – | 30.7% |
| COc1ccc2cc3[n+](cc2c1NCCc1ccc(Cl)cc1Cl)CCc1cc2c(cc1-3)OCO2 | 3.36 | 6.89 | 6.37 | 93.6% | 81.3% |
| COc1ccc2cc3[n+](cc2c1NCCCCOc1ccccc1)CCc1cc2c(cc1-3)OCO2 | 3.68 | 6.46 | 5.92 | – | – |
| COc1ccc2cc3[n+](cc2c1NCCCOc1ccccc1)CCc1cc2c(cc1-3)OCO2 | 5.4 | 6.23 | 6.67 | – | – |
| COc1ccc2cc3[n+](cc2c1NCCc1ccccc1C)CCc1cc2c(cc1-3)OCO2 | 4.05 | 7.57 | 6.15 | 95% | 80% |
| COc1ccc2cc3[n+](cc2c1NCCOc1ccccc1)CCc1cc2c(cc1-3)OCO2 | 5.15 | 6.16 | 6.14 | – | – |
| COc1ccc2cc3[n+](cc2c1NCCc1ccc(C)cc1)CCc1cc2c(cc1-3)OCO2 | 4.56 | 6.35 | 6.09 | 94% | 80% |
| COc1ccc2cc3[n+](cc2c1OC)CCc1cc2c(cc1-3)OCO2 | – | – | – | 36.3% | 8.9% |
| COc1ccc2cc3[n+](cc2c1NCCCCCOc1ccccc1)CCc1cc2c(cc1-3)OCO2 | 3.64 | 5.96 | 5.81 | – | – |
| COc1ccc(CCNc2c(OC)ccc3cc4[n+](cc23)CCc2cc3c(cc2-4)OCO3)cc1OC | 5.3 | 6.80 | 5.24 | 70.1% | 54.1% |
| COc1ccc2cc3[n+](cc2c1NC(C)c1ccccc1)CCc1cc2c(cc1-3)OCO2 (stereo unspecified) | 2.17 | 5.72 | 5.48 | – | – |
| COc1ccc2cc3[n+](cc2c1NCCCc1ccccc1)CCc1cc2c(cc1-3)OCO2 | 3.51 | 6.17 | 6.11 | – | – |
| COc1ccc2cc3[n+](cc2c1NCc1ccccc1)CCc1cc2c(cc1-3)OCO2 | 4.32 | 6.03 | 5.64 | – | – |
| COc1ccc2[nH]cc(CCNc3c(OC)ccc4cc5[n+](cc34)CCc3cc4c(cc3-5)OCO4)c2c1 | 6.06 | 5.90 | 5.86 | – | – |
| COc1ccc2cc3[n+](cc2c1NCCc1ccccc1)CCc1cc2c(cc1-3)OCO2 | 4.8 | 6.68 | 6.39 | 92.2% | 79.2% |
| COc1ccc2cc3[n+](cc2c1OCCCCOc1ccccc1)CCc1cc2c(cc1-3)OCO2 | 1 | – | – | – | – |
| COc1ccc2cc3[n+](cc2c1NCCCN(C)C)CCc1cc2c(cc1-3)OCO2 | 5.7 | 6.24 | 5.20 | – | – |
| COc1ccc2cc3[n+](cc2c1NCCc1ccc(F)cc1)CCc1cc2c(cc1-3)OCO2 | 4.48 | 6.62 | 6.35 | 90.4% | 76.3% |
| COc1ccc2cc3[n+](cc2c1NCC(C)C)CCc1cc2c(cc1-3)OCO2 | 5.12 | 5.94 | 5.70 | – | – |
| COc1ccc2cc3[n+](cc2c1NCCc1ccccn1)CCc1cc2c(cc1-3)OCO2 | 6.4 | 5.94 | 5.60 | – | – |
| COc1ccc2cc3[n+](cc2c1NCCc1cccs1)CCc1cc2c(cc1-3)OCO2 | 4.18 | 6.22 | 6.26 | 87.8% | 72.8% |
| COc1ccc2cc3[n+](cc2c1NCCCCOc1cccnc1)CCc1cc2c(cc1-3)OCO2 | 4.63 | 5.93 | 5.53 | – | – |
| COc1ccc2cc3[n+](cc2c1NCCCCOc1cccc2ccccc12)CCc1cc2c(cc1-3)OCO2 | 2.49 | 6.40 | 6.29 | – | – |
| COc1ccc(CCNc2c(OC)ccc3cc4[n+](cc23)CCc2cc3c(cc2-4)OCO3)cc1 | 4.68 | 6.00 | 5.54 | 91.1% | 79% |
| COc1ccc2cc3[n+](cc2c1NCCc1ccc([N+](=O)[O-])cc1)CCc1cc2c(cc1-3)OCO2 | 2.83 | 6.16 | 6.08 | 82.6% | 73.7% |
